Measurements reported in patent US9187472B2 (AbbVie Inc., priority 2012, dated 2015).

Legend:
NAMPT = NAMPT (Homo sapiens, UniProt P43490); experiment: TR-FRET Binding Assay of NAMPT with PRPP; details: with 200 μM PRPP and 2.5 mM ATP; 2 nM NAMPT, 2 nM probe, 16 hours equilibration
Summary of the method: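 NAMPT 2 nM + probe 2 nM + Tb-anti-His Ab 1 nM; PRPP 200 μM, ATP 2.5 mM, DMSO 2%; 16 h equilibration before TR-FRET read.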

PC3 cells = experiment: NAMPT Cell Proliferation Assay; format: cell-based; details: Homo sapiens, PC-3, 120 h, 5 days incubation, cell viability by Cell Titer Glo
Summary of the method: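 Seed PC3 at 500 cells/well (RPMI, 10% HI-FBS), attach overnight; add compound, 10-fold series 10 μM → 1×10^−5 μM; incubate 5 d, 37° C/5% CO2; luminescent viability readout; fit % inhibition sigmoidally for IC50.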

[1] = molecular target: NAMPT (human, recombinant, C-terminally His-tagged) (Homo sapiens, UniProt P43490); experiment: Time-Resolved Fluorescence Resonance Energy Transfer (TR-FRET) Binding Assay of NAMPT; details: without substrates; 6.8 nM NAMPT, 200 nM probe, 3 hours equilibration
Sequence of NAMPT (human, recombinant, C-terminally His-tagged) (P43490 whole entry): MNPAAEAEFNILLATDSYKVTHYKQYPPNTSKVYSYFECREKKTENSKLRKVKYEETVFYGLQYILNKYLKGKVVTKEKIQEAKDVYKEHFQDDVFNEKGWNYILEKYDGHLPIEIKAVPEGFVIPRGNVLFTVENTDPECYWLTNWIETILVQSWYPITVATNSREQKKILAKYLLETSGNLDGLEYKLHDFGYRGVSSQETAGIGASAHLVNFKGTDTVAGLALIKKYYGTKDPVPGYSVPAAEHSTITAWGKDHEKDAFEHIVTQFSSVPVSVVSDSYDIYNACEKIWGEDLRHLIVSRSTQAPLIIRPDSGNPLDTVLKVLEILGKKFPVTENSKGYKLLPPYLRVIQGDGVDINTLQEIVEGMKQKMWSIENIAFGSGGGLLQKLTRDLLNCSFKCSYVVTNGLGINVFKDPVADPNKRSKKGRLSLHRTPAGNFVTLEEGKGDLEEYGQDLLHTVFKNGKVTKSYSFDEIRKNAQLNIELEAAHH
Summary of the method: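 Read-out is the time-resolved FRET ratio Em520/Em495 (excitation 337 nm) between a terbium anti-His antibody (1 nM) on the enzyme and an Oregon Green 488-labelled nicotinamide-competitive inhibitor probe (200 nM). Enzyme was 6.8 nM, DMSO 2%, pH 7.5 HEPES buffer; 3 h room-temperature equilibration preceded reading.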

Sequence of NAMPT (P43490 whole entry): as above

Compound | IC50 (NAMPT) [nM] | IC50 (PC3 cells) [nM] | IC50 [1] [nM]
COCCNC(=O)N(C[C@@H]1CCCO1)c1ncc(C(=O)NCc2ccc3nccn3c2)s1 [Example 155, N-(imidazo[1,2-a]pyridin-6-ylmethyl)-2-{[(2-methoxyethyl)carbamoyl][(2S)-tetrahydrofuran-2-ylmethyl]amino}-1,3-thiazole-5-carboxamide] | 2.3 | 17.6 | 3370
CC(C)OCCNC(=O)N(C[C@@H]1CCCO1)c1ncc(C(=O)NCc2ccc3nccn3c2)s1 [Example 156, N-(imidazo[1,2-a]pyridin-6-ylmethyl)-2-({[2-(propan-2-yloxy)ethyl]carbamoyl}[(2S)-tetrahydrofuran-2-ylmethyl]amino)-1,3-thiazole-5-carboxamide] | 3.18 | 28 | 3270
CC(C)OCCNC(=O)N(CC1CCOC1)c1ncc(C(=O)NCc2ccc3nccn3c2)s1 (stereo not drawn) [Example 157, N-(imidazo[1,2-a]pyridin-6-ylmethyl)-2-[{[2-(propan-2-yloxy)ethyl]carbamoyl}(tetrahydrofuran-3-ylmethyl)amino]-1,3-thiazole-5-carboxamide] | 1.1 | 29.2 | 4140
O=C(NCc1ccc2nccn2c1)c1cnc(N2CC(c3ccc(Cl)cc3)OC2=O)s1 (stereo not drawn) [Example 158, 2-[5-(4-chlorophenyl)-2-oxo-1,3-oxazolidin-3-yl]-N-(imidazo[1,2-a]pyridin-6-ylmethyl)-1,3-thiazole-5-carboxamide] | 6.39 | 191 | 341
CC(C)C(=O)N1CCC(Oc2ccc(C(=O)NCc3ccc4nccn4c3)cc2)CC1 [Example 159, N-(imidazo[1,2-a]pyridin-6-ylmethyl)-4-{[1-(2-methylpropanoyl)piperidin-4-yl]oxy}benzamide] | 2.16 | 233 | 2490
CC(=O)N1CCC(Oc2ccc(C(=O)NCc3ccc4nccn4c3)cc2)CC1 [Example 160, 4-[(1-acetylpiperidin-4-yl)oxy]-N-(imidazo[1,2-a]pyridin-6-ylmethyl)benzamide] | 1.26 | 915 | 3220
O=C(NCc1ccc2nccn2c1)c1ccc(OC2CCN(C(=O)C3CC3)CC2)cc1 [Example 161, 4-{[1-(cyclopropylcarbonyl)piperidin-4-yl]oxy}-N-(imidazo[1,2-a]pyridin-6-ylmethyl)benzamide] | 2.89 | 635 | 1310
O=C(NCc1ccc2nccn2c1)c1ccc(OC2CCN(C(=O)C3CCOCC3)CC2)cc1 [Example 162, N-(imidazo[1,2-a]pyridin-6-ylmethyl)-4-{[1-(tetrahydro-2H-pyran-4-ylcarbonyl)piperidin-4-yl]oxy}benzamide] | 2.09 | 43.6 | 2570
O=C(NCc1ccc2nccn2c1)c1ccc(OC2CCN(C(=O)C3COCCO3)CC2)cc1 (stereo not drawn) [Example 163, 4-{[1-(1,4-dioxan-2-ylcarbonyl)piperidin-4-yl]oxy}-N-(imidazo[1,2-a]pyridin-6-ylmethyl)benzamide] | 6.29 | 96.4 | 2100
O=C(NCc1ccc2nccn2c1)c1ccc(OC2CCN(C(=O)[C@@H]3CCCO3)CC2)cc1 [Example 164, N-(imidazo[1,2-a]pyridin-6-ylmethyl)-4-({1-[(2S)-tetrahydrofuran-2-ylcarbonyl]piperidin-4-yl}oxy)benzamide] | 3.46 | 101 | 2460
O=C(NCc1ccc2nccn2c1)c1ccc(OC2CCN(C(=O)[C@H]3CCCO3)CC2)cc1 [Example 165, N-(imidazo[1,2-a]pyridin-6-ylmethyl)-4-({1-[(2R)-tetrahydrofuran-2-ylcarbonyl]piperidin-4-yl}oxy)benzamide] | 1.61 | 137 | 1530
CC(C)(O)C(=O)N1CCC(Oc2ccc(C(=O)NCc3ccc4nccn4c3)cc2)CC1 [Example 166, 4-{[1-(2-hydroxy-2-methylpropanoyl)piperidin-4-yl]oxy}-N-(imidazo[1,2-a]pyridin-6-ylmethyl)benzamide] | 1.81 | 97.1 | 1430
CC(C)OCC(=O)N1CCC(Oc2ccc(C(=O)NCc3ccc4nccn4c3)cc2)CC1 [Example 167, N-(imidazo[1,2-a]pyridin-6-ylmethyl)-4-({1-[(propan-2-yloxy)acetyl]piperidin-4-yl}oxy)benzamide] | 2.52 | 104 | 1730
CCCC(=O)N1CCC(Oc2ccc(C(=O)NCc3ccc4nccn4c3)cc2)CC1 [Example 168, 4-[(1-butanoylpiperidin-4-yl)oxy]-N-(imidazo[1,2-a]pyridin-6-ylmethyl)benzamide] | 0.951 | 208 | 1110
COCC(C)C(=O)N1CCC(Oc2ccc(C(=O)NCc3ccc4nccn4c3)cc2)CC1 (stereo not drawn) [Example 169, N-(imidazo[1,2-a]pyridin-6-ylmethyl)-4-{[1-(3-methoxy-2-methylpropanoyl)piperidin-4-yl]oxy}benzamide] | 4.25 | 26.9 | 375
O=C(NCc1ccc2nccn2c1)c1ccc(OC2CCN(C(=O)CC(F)(F)F)CC2)cc1 [Example 170, N-(imidazo[1,2-a]pyridin-6-ylmethyl)-4-{[1-(3,3,3-trifluoropropanoyl)piperidin-4-yl]oxy}benzamide] | 2.25 | 604 | 3360
O=C(NCc1ccc2nccn2c1)c1ccc(OC2CCN(C(=O)CC3CCOCC3)CC2)cc1 [Example 171, N-(imidazo[1,2-a]pyridin-6-ylmethyl)-4-{[1-(tetrahydro-2H-pyran-4-ylacetyl)piperidin-4-yl]oxy}benzamide] | 2.51 | 44.7 | 2170
O=C(NCc1ccc2nccn2c1)c1ccc(OC2CCN(C(=O)CC3CC3)CC2)cc1 [Example 172, 4-{[1-(cyclopropylacetyl)piperidin-4-yl]oxy}-N-(imidazo[1,2-a]pyridin-6-ylmethyl)benzamide] | 3.55 | 223 | 2210
O=C(NCc1ccc2nccn2c1)c1ccc(OC2CCN(C(=O)CC3CCCO3)CC2)cc1 (stereo not drawn) [Example 173, N-(imidazo[1,2-a]pyridin-6-ylmethyl)-4-{[1-(tetrahydrofuran-2-ylacetyl)piperidin-4-yl]oxy}benzamide] | 1.24 | 50.1 | 1510
CC(C)Cn1cc(-c2ccc(C(=O)NCc3ccn4ccnc4c3)s2)cn1 [Example 174, N-(imidazo[1,2-a]pyridin-7-ylmethyl)-5-[1-(2-methylpropyl)-1H-pyrazol-4-yl]thiophene-2-carboxamide] | 0.169 | 1.12 | 28.3
CC(C)C(=O)n1cc(-c2ccc(C(=O)NCc3ccc4nccn4c3)s2)cn1 [Example 175, N-(imidazo[1,2-a]pyridin-6-ylmethyl)-5-[1-(2-methylpropanoyl)-1H-pyrazol-4-yl]thiophene-2-carboxamide] | 0.9 | 313 | 697
CC(C)(O)Cn1cc(-c2ccc(C(=O)NCc3ccc4nccn4c3)s2)cn1 [Example 176, 5-[1-(2-hydroxy-2-methylpropyl)-1H-pyrazol-4-yl]-N-(imidazo[1,2-a]pyridin-6-ylmethyl)thiophene-2-carboxamide] | 0.414 | 1.81 | 60.6
CC1(Cn2cc(-c3ccc(C(=O)NCc4ccc5nccn5c4)s3)cn2)COC1 [Example 177, N-(imidazo[1,2-a]pyridin-6-ylmethyl)-5-{1-[(3-methyloxetan-3-yl)methyl]-1H-pyrazol-4-yl}thiophene-2-carboxamide] | 0.169 | 1.69 | 20.1
O=C(NCc1ccc2nccn2c1)c1ccc(-c2cnn(CC3CCC3)c2)s1 [Example 178, 5-[1-(cyclobutylmethyl)-1H-pyrazol-4-yl]-N-(imidazo[1,2-a]pyridin-6-ylmethyl)thiophene-2-carboxamide] | 0.169 | 1.85 | 14.3
O=C(NCc1ccc2nccn2c1)c1ccc(-c2cnn(CC3CCCCC3)c2)s1 [Example 179, 5-[1-(cyclohexylmethyl)-1H-pyrazol-4-yl]-N-(imidazo[1,2-a]pyridin-6-ylmethyl)thiophene-2-carboxamide] | 0.445 | 2.18 | 58.1
CC[C@@H](O)Cn1cc(-c2ccc(C(=O)NCc3ccc4nccn4c3)s2)cn1 [Example 180, 5-{1-[(2R)-2-hydroxybutyl]-1H-pyrazol-4-yl}-N-(imidazo[1,2-a]pyridin-6-ylmethyl)thiophene-2-carboxamide] | 0.266 | 9.12 | 584
CC(C)[C@@H]1COC(=O)N1c1ncc(C(=O)NCc2ccn3ccnc3c2)s1 [Example 181, N-(imidazo[1,2-a]pyridin-7-ylmethyl)-2-[(4R)-2-oxo-4-(propan-2-yl)-1,3-oxazolidin-3-yl]-1,3-thiazole-5-carboxamide] | 0.283 | 7.75 | 349
